The NIST ThermoML archive (doi:10.1021/je060271a)

Conditions: Liquid, Vibrating tube method

CCCCC(=O)OCC(COC(=O)CCCC)(COC(=O)CCCC)COC(=O)CCCC [pentaerythritol tetrapentanoate]
Conditions | mass density [kg/m3]
303.15 K, 29848 kPa | 1028.9
303.15 K, 29879 kPa | 1028.8
303.15 K, 29916 kPa | 1029
303.15 K, 29948 kPa | 1028.9
303.15 K, 29979 kPa | 1029
303.15 K, 30016 kPa | 1028.9
303.15 K, 30047 kPa | 1028.9
303.15 K, 30079 kPa | 1029
303.15 K, 30118 kPa | 1029
303.15 K, 30150 kPa | 1029.1
303.15 K, 30185 kPa | 1029
303.15 K, 30217 kPa | 1029
303.15 K, 30249 kPa | 1029.1
303.15 K, 30286 kPa | 1029
303.15 K, 30319 kPa | 1029.1
303.15 K, 30352 kPa | 1029.1
303.15 K, 30390 kPa | 1029
303.15 K, 30423 kPa | 1029.2
303.15 K, 30461 kPa | 1029.1
303.15 K, 30493 kPa | 1029.2
303.15 K, 30526 kPa | 1029.2
303.15 K, 30566 kPa | 1029.2
303.15 K, 30598 kPa | 1029.2
303.15 K, 30631 kPa | 1029.2
303.15 K, 30665 kPa | 1029.4
303.15 K, 30705 kPa | 1029.3
303.15 K, 30738 kPa | 1029.3
303.15 K, 30777 kPa | 1029.3
303.15 K, 30810 kPa | 1029.3
303.15 K, 30844 kPa | 1029.4
303.15 K, 30884 kPa | 1029.4
303.15 K, 30917 kPa | 1029.4
303.15 K, 30951 kPa | 1029.4
303.15 K, 30991 kPa | 1029.5
303.15 K, 31025 kPa | 1029.5
303.15 K, 31060 kPa | 1029.6
303.15 K, 31101 kPa | 1029.5
303.15 K, 31135 kPa | 1029.5
303.15 K, 31170 kPa | 1029.5
303.15 K, 31204 kPa | 1029.6
303.15 K, 31246 kPa | 1029.7
303.15 K, 31280 kPa | 1029.5
303.15 K, 31315 kPa | 1029.6
303.15 K, 31350 kPa | 1029.6
303.15 K, 31392 kPa | 1029.7
303.15 K, 31427 kPa | 1029.7
303.15 K, 31462 kPa | 1029.8
303.15 K, 31504 kPa | 1029.8
303.15 K, 31540 kPa | 1029.7
303.15 K, 31576 kPa | 1029.8
303.15 K, 31610 kPa | 1029.8
303.15 K, 31653 kPa | 1029.9
303.15 K, 31688 kPa | 1029.9
303.15 K, 31731 kPa | 1029.9
303.15 K, 31767 kPa | 1029.8
303.15 K, 31803 kPa | 1029.9
303.15 K, 31846 kPa | 1030
303.15 K, 31882 kPa | 1030
303.15 K, 31918 kPa | 1029.9
303.15 K, 31954 kPa | 1030
303.15 K, 31996 kPa | 1030
303.15 K, 32033 kPa | 1030
303.15 K, 32078 kPa | 1030.1
303.15 K, 32115 kPa | 1030.2
303.15 K, 32152 kPa | 1030.1
303.15 K, 32188 kPa | 1030.1
303.15 K, 32232 kPa | 1030.1
303.15 K, 32269 kPa | 1030.2
303.15 K, 32306 kPa | 1030.2
303.15 K, 32351 kPa | 1030.4
303.15 K, 32387 kPa | 1030.3
303.15 K, 32432 kPa | 1030.3
303.15 K, 32470 kPa | 1030.3
303.15 K, 32507 kPa | 1030.3
303.15 K, 32544 kPa | 1030.2
303.15 K, 32590 kPa | 1030.4
303.15 K, 32628 kPa | 1030.3
303.15 K, 32667 kPa | 1030.6
303.15 K, 32714 kPa | 1030.4
303.15 K, 32752 kPa | 1030.4
303.15 K, 32798 kPa | 1030.6
303.15 K, 32838 kPa | 1030.5
303.15 K, 32877 kPa | 1030.5
303.15 K, 32926 kPa | 1030.5
303.15 K, 32968 kPa | 1030.5
303.15 K, 33012 kPa | 1030.6
303.15 K, 33064 kPa | 1030.6
303.15 K, 33109 kPa | 1030.6
303.15 K, 33144 kPa | 1030.7
303.15 K, 33166 kPa | 1030.7
303.15 K, 33187 kPa | 1030.7
303.15 K, 33214 kPa | 1030.8
303.15 K, 33237 kPa | 1030.6
303.15 K, 33258 kPa | 1030.7
303.15 K, 33284 kPa | 1030.8
303.15 K, 33307 kPa | 1030.8
303.15 K, 33354 kPa | 1030.8
303.15 K, 33377 kPa | 1030.7
303.15 K, 33404 kPa | 1030.7
303.15 K, 33423 kPa | 1030.9
303.15 K, 33449 kPa | 1030.8
303.15 K, 33472 kPa | 1030.7
303.15 K, 33494 kPa | 1030.9
303.15 K, 33521 kPa | 1030.8
303.15 K, 33544 kPa | 1030.8
303.15 K, 33594 kPa | 1030.9
303.15 K, 33616 kPa | 1030.9
303.15 K, 33643 kPa | 1031
303.15 K, 33666 kPa | 1031
303.15 K, 33687 kPa | 1031
303.15 K, 33715 kPa | 1030.9
303.15 K, 33740 kPa | 1031
303.15 K, 33763 kPa | 1031
303.15 K, 33790 kPa | 1031.1
303.15 K, 33813 kPa | 1031
303.15 K, 33836 kPa | 1031
303.15 K, 33862 kPa | 1031
303.15 K, 33886 kPa | 1031.1
303.15 K, 33911 kPa | 1031
303.15 K, 33938 kPa | 1031.1
303.15 K, 33963 kPa | 1031
303.15 K, 33987 kPa | 1031.2
303.15 K, 34014 kPa | 1031.2
303.15 K, 34041 kPa | 1031.1
303.15 K, 34066 kPa | 1031.2
303.15 K, 34091 kPa | 1031.2
303.15 K, 34122 kPa | 1031.2
303.15 K, 34148 kPa | 1031.3
303.15 K, 34176 kPa | 1031.2
303.15 K, 34209 kPa | 1031.1
303.15 K, 34236 kPa | 1031.2
303.15 K, 34272 kPa | 1031.3
303.15 K, 34293 kPa | 1031.3
303.15 K, 34298 kPa | 1031.3
303.15 K, 34306 kPa | 1031.3
303.15 K, 34335 kPa | 1031.4
303.15 K, 34345 kPa | 1031.4
303.15 K, 34355 kPa | 1031.4
303.15 K, 34361 kPa | 1031.3
303.15 K, 34369 kPa | 1031.2
303.15 K, 34375 kPa | 1031.4
303.15 K, 34382 kPa | 1031.4
303.15 K, 34388 kPa | 1031.3
303.16 K, 663.45 kPa | 1011.3
303.16 K, 665.18 kPa | 1011.4
303.16 K, 666.06 kPa | 1011.3
303.16 K, 670.92 kPa | 1011.3
303.16 K, 671.95 kPa | 1011.3
303.16 K, 672.66 kPa | 1011.2
303.16 K, 673.71 kPa | 1011.2
303.16 K, 674.57 kPa | 1011.2
303.16 K, 683.79 kPa | 1011.3
303.16 K, 684.84 kPa | 1011.3
303.16 K, 687.26 kPa | 1011.2
303.16 K, 700.64 kPa | 1011.3
303.16 K, 702.03 kPa | 1011.2
303.16 K, 702.73 kPa | 1011.4
303.16 K, 732.61 kPa | 1011.3
303.16 K, 790.98 kPa | 1011.3
303.16 K, 792.36 kPa | 1011.4
